Laboratory results taken from a compilation of properties of binary mixtures (doi:10.1039/b303735e).

Assay: xn = mol fraction of the nth substance listed
Settings: 298.15 K, 101.3 kPa

CCCC[n+]1ccn(C)c1.F[B-](F)(F)F + CC#N
Settings | viscosity [mPa·s]
x2 = 0 | 110
x2 = 0.0982 | 70.9
x2 = 0.2265 | 40.3
x2 = 0.3047 | 27.7
x2 = 0.4554 | 13.2
x2 = 0.5059 | 10.22
x2 = 0.5469 | 8.25
x2 = 0.6005 | 6.07
x2 = 0.6441 | 4.58
x2 = 0.6973 | 3.34
x2 = 0.9513 | 0.593

CCCC[n+]1ccn(C)c1.F[B-](F)(F)F + CCC(C)=O
Settings | viscosity [mPa·s]
x2 = 0 | 110

CC#N + CCCC[n+]1ccn(C)c1.F[B-](F)(F)F
Settings | viscosity [mPa·s]
x1 = 1 | 0.341

CCC(C)=O + CCCC[n+]1ccn(C)c1.F[B-](F)(F)F
Settings | viscosity [mPa·s]
x1 = 0.2004 | 42.2
x1 = 0.3969 | 15.2
x1 = 0.4495 | 11.97
x1 = 0.5 | 9.32
x1 = 0.5521 | 7.13
x1 = 0.6062 | 5.38
x1 = 0.6545 | 4.1
x1 = 0.8137 | 1.55
x1 = 0.8974 | 0.847
x1 = 0.9502 | 0.564
x1 = 1 | 0.373

ClCCl + CCCC[n+]1ccn(C)c1.F[B-](F)(F)F
Settings | viscosity [mPa·s]
x1 = 0.199 | 37.2
x1 = 0.2854 | 26.3
x1 = 0.3985 | 17
x1 = 0.5452 | 10.05
x1 = 0.5958 | 7.69
x1 = 0.6471 | 5.92
x1 = 0.6958 | 4.6
x1 = 0.8019 | 2.59
x1 = 0.9015 | 1.12
x1 = 0.9477 | 0.715
x1 = 1 | 0.401

CCCC[n+]1ccn(C)c1.F[B-](F)(F)F + CN(C)C=O
Settings | viscosity [mPa·s]
x2 = 0 | 110
x2 = 0.2041 | 52.2
x2 = 0.3024 | 32.9
x2 = 0.4061 | 20.8
x2 = 0.4408 | 17.6
x2 = 0.5052 | 12.7
x2 = 0.5459 | 11
x2 = 0.6014 | 7.8
x2 = 0.665 | 6.4
x2 = 0.701 | 5.04
x2 = 0.8008 | 2.91
x2 = 0.9005 | 1.6
x2 = 0.947 | 1.19

CCCC[n+]1ccn(C)c1.F[B-](F)(F)F + ClCCl
Settings | viscosity [mPa·s]
x2 = 0 | 110
